Biological target: T1, Therminator II DNA polymerase (Thermococcus sp., UniProt Q56366, A485L/D141A/E143A/Y409V)
T1 construct: purchased New England Biolabs, Inc. (printed for the ThermoPol II buffer; inferred for the enzyme)
Experiment: Extension of DNA primer with MRT by polymerase (MALDI-TOF MS readout)
Format: biochemical
Experimental: The reaction was consisted of 20 cycles at 94° C. for 20 sec, 46° C. for 40 sec, and 60° C. for 90 sec. After the reaction, the mixture was incubated with strepatavidin-coated magnetic beads ([…], Dynabead MyOne, Invitrogen) in PBS buffer ([…]) at room temperature for 30 min.
After removing a fluorescent group from the 3′-end as the same manner as described in Example 4, the obtained DNA was purified by reverse-phased HPLC. The purified DNA was used as a primer for the second extension reaction with the MRT. The extension was performed by the same manner as described in Example 2. The resultant product was characterized using MALDI-TOF mass spectrometry (FIG. 3d).

T1 sequence (Q56366 whole entry D141A/E143A/Y409V/A485L): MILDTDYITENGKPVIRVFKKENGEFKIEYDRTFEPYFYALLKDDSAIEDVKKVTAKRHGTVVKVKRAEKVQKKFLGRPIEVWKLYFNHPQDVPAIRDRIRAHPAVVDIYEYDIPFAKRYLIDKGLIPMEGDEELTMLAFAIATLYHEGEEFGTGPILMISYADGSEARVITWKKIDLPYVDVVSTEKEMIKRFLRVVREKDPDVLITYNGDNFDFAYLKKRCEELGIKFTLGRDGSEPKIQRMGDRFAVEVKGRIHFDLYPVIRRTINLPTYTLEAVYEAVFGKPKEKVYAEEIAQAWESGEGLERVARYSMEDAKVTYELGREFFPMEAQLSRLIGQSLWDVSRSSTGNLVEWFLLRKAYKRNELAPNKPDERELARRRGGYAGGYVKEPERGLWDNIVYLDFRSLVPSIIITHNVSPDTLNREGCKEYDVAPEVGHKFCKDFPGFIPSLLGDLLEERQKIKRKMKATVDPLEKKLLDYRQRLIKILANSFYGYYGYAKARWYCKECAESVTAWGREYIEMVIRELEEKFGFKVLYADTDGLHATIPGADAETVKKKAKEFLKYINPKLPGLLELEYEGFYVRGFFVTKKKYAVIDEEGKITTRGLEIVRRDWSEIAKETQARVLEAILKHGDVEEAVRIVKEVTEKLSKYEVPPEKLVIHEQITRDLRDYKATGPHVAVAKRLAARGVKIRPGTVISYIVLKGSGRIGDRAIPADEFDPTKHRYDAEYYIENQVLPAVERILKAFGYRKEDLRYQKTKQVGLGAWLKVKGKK

3′-O-(7-hydroxycoumarin)-dTTP [Compound 13]
primer extension by MRT (biotinylated primer/template, 4 units Therminator II DNA polymerase, 20 cycles): the primer was extended by MRT | second primer extension by MRT after label elimination (deprotected, HPLC-purified extended primer used as primer, Therminator II DNA polymerase): the primer chain could be extended again by another MRT

Reference: US8030466B2, “3′-o-fluorescently modified nucleotides and uses thereof” (Korea Institute of Science and Technology, priority 2009, dated 2011)
